Reference: patent publication US20040152650A1, “Preventing ischemia-induced cell damage” (priority 2002, published 2004)

Columns and labels:
cardiac myocytes [1] = assay: Peptide protection against hypoxia-acidosis death (DNA fragmentation analyses); format: cell-based, rat; details: peptide 10 PM (20 μg/ml); for protection against hypoxia-acidosis death: 24-48 h hypoxia with acid accumulation; for protection (quantitative DNA fragmentation analyses): n=3
Procedure: (§1) Quantitative Analysis of Apoptosis. Cells were examined for morphologic evidence of apoptosis or necrosis by staining with anti-myosin antibody and the fluorescent DNA-binding dyes Hoechst 33342 and propidium iodide (PI), exactly as previously described (26;30). Genomic DNA fragmentation analyses were also as described previously (26;30).
Peptides were added to cardiac myocyte cultures at a concentration of 10 PM (20 μg/ml) in serum-free defined medium (DMEM/high glucose/TIB) as described previously (26). Control cultures contained 20 μg/ml BSA. Cultures were exposed to 24-48 h of hypoxia with acid accumulation, also as described previously (26). The results using peptide 1 (23 aa N-BNIP3) are shown in FIG. 7 (−is control +is with peptide treatment).

cardiac myocytes [2] = assay: DNA fragmentation in cardiac myocytes subjected to hypoxia-acidosis; format: cell-based, rat; details: for Fragmentation of cardiac myocyte DNA by hypoxia-acidosis with MPTP inhibitor: 48 h time point, DUB 200 μM; for protection against DNA fragmentation with MPTP inhibitor: after 72 h hypoxia-acidosis
Procedure: Cardiac Myocyte Culture and Hypoxia. Methods utilized for the isolation and culture of primary neonatal rat cardiac myocytes and exposure to hypoxia have been described previously (28;29). Experiments were performed in defined serum-free DMEM/M-199 (4:1) medium. Oxygen was continuously monitored and maintained at <10 mm Hg.
as §1
Antisense. Antisense oligonucleotides were complementary to bases 10-40 and 600-630 of the BNIP3 gene; sequences 5′[…] (SEQ ID NO:1) and 5′[…] (SEQ ID NO:2) respectively. Random sequence oligonucleotides contained the same bases in a scrambled sequence. FITC-tagged oligonucleotides (2 μM final of each) in DMEM were mixed with lipofectamine (0.1 μg/ml, final concentration) and incubated with cardiac myocytes at 37° C. for 8 hours before treatments. Immediately before exposing to hypoxia, fresh medium with oligonucleotides was added. Fluorescence was visualized after 24, 36, and 48 hrs of exposure to hypoxia. Fresh oligonucleotides (400 nM) were added at 24 and 36 hrs.

Compound | protection against hypoxia-acidosis death (cardiac myocytes [1]) | protection (quantitative DNA fragmentation analyses) (cardiac myocytes [1]; 24 h hypoxia with acid accumulation) [%] | protection (quantitative DNA fragmentation analyses) (cardiac myocytes [1]; 48 h hypoxia with acid accumulation) [%] | Fragmentation of cardiac myocyte DNA by hypoxia-acidosis with MPTP inhibitor (cardiac myocytes [2]) | protection against DNA fragmentation with MPTP inhibitor (cardiac myocytes [2])
GRKKRRQRRRPPQC-----MSQSGEENLQGSWVELHFSNGNG-(C-term) (GRKKRRQRRRPPQCMSQSGEENLQGSWVELHFSNGNG; Synthetic Peptide Fragments) [Peptide 1, TAT-peptide containing N-terminal amino acids 1-23 of BNIP3] | strong and significant protection | > 50 | > 50 |  | 
CCCCCCCCCCC1=C(C)C(=O)C(OC)=C(OC)C1=O [DUB, decylubiquinone] |  |  |  | blocked | mediated protection
CO[C@H](C/C=C\C=C\CC/C=C/C[C@H](C)/C=C/C(=C\C(=O)O)CC(=O)O)/C(C)=C\C=C(/C)C(=O)O [BA, bongrekic acid] |  |  |  | blocked | mediated protection
GRKKRRQRRRPPQC----GDMEKILLDAQHESGRSSKSSHCDSP-(C-term) (GRKKRRQRRRPPQCGDMEKILLDAQHESGRSSKSSHCDSP; Synthetic Peptide Fragments) [Peptide 2, TAT-peptide containing N-terminal amino acids 24-49 of BNIP3] | less effective |  |  |  | 
